In brackets after ≈: the same amount, converted by molar mass. Positions of bridges follow the written chain, without caps; N, C: chain ends. Non-standard residues stand in square brackets, D forms with d. Residues, ends and D or L forms follow the SMILES beside them. S5 = C=CCCC[C@](C)(N)C(=O)O; Dab = NCC[C@H](N)C(=O)O
Assays:
P. aeruginosa = type: cell-based, Pseudomonas aeruginosa
Outline: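 Broth microdilution adapted from CLSI in MHB or cation-adjusted MHB; log-phase P. aeruginosa at 5×10^5 CFU/ml final with serially diluted stapled peptides. Incubated 20-24 h at 37 °C; MIC is the lowest concentration without visible growth.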

in vitro [1] = type: cell-based; conditions: human, Inhibitory Concentration at 50% Cytotoxicity (IC50) Human Liver Cells (HepG2)
Outline: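 HepG2 cells in EMEM with 10% FBS, allowed 4 h to attach, then exposed to serial dilutions of StAMPs (from a 5 mg/mL water stock) or vehicle. After 48 h at 37 °C, viability read by CellTiter-Glo luminescence.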

K. pneumoniae = type: cell-based, Klebsiella pneumoniae
Outline: (§1)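 StAMP peptides were tested by CLSI-adapted broth microdilution in MHB or cation-adjusted MHB II, final inoculum 5×10^5 CFU/ml from log-phase cultures. After 20-24 h at 37° C, MIC was taken as the lowest peptide concentration without visible growth.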

in vitro [2] = type: cell-based; conditions: human
Outline: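 RPTEC or HepG2 cells plated overnight, given fresh media, then serial StAMP dilutions (from 5 mg/mL water stock) or vehicle at 37 °C. Cytotoxicity read as LDH release into media, absorbance 490 nm; renal toxicity after 90 min, liver toxicity after 48 h incubation.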

A. baumannii = type: cell-based, Acinetobacter baumannii
Outline: as §1

S. aureus = type: cell-based, Staphylococcus aureus
Outline: as §1

E. coli = type: cell-based, Escherichia coli
Outline: as §1

SMILES | Minimum Inhibitory Concentration (MIC) P. aeruginosa (P. aeruginosa) | IC50 at 48 hours (in vitro [1]) | Minimum Inhibitory Concentration (MIC) K. pneumoniae (K. pneumoniae) | IC50 at 90 min (in vitro [2]) | Minimum Inhibitory Concentration (MIC) A. baumannii (A. baumannii) | Minimum Inhibitory Concentration (MIC) S. aureus (S. aureus) | Minimum Inhibitory Concentration (MIC) E. coli (E. coli)
CC(C)[C@@H]1NC(=O)[C@@](C)(NC(=O)[C@H](C)NC(=O)[C@H](CCCCN)NC(=O)CNC(=O)[C@H](Cc2ccccc2)NC(=O)[C@H](CCCCN)NC(=O)[C@H](CCCCN)NC(=O)[C@H](CCCCN)NC(=O)[C@H](CO)NC(=O)[C@H](Cc2c[nH]cn2)NC(=O)[C@]2(C)CCCC=CCCC[C@](C)(NC(=O)CN)C(=O)NCC(=O)N[C@@H](CCCCN)C(=O)N[C@@H](Cc3ccccc3)C(=O)N2)CCCC=CCCC[C@@](C)(C(=O)N[C@@H](C)C(=O)N[C@@H](CCCCN)C(=O)N[C@@H](CCCCN)C(N)=O)NC(=O)[C@H](CC(=O)O)NC(=O)CNC1=O [compound 16] (H-G[S5]GKF[S5]HSKKKFGKA[S5]VGD[S5]AKK-NH2; staple 2-6, 16-20) | 16 µg/mL | > 200 µg/mL | >64 µg/mL | > 200 µg/mL | 4 µg/mL | >64 µg/mL | 12 µg/mL
CC(C)[C@@H]1NC(=O)[C@@](C)(NC(=O)[C@H](C)NC(=O)[C@H](CCCCN)NC(=O)CNC(=O)[C@H](Cc2ccccc2)NC(=O)[C@H](CCCCN)NC(=O)[C@H](CCCCN)NC(=O)[C@H](CCCCN)NC(=O)[C@H](CO)NC(=O)[C@H](Cc2c[nH]cn2)NC(=O)[C@]2(C)CCCC=CCCC[C@](C)(NC(=O)CN)C(=O)NCC(=O)N[C@@H](CCCCN)C(=O)N[C@@H](Cc3ccccc3)C(=O)N2)CCCC=CCCC[C@@](C)(C(=O)N[C@@H](C)C(=O)N[C@@H](CCCCN)C(=O)N[C@@H](CCCCN)C(N)=O)NC(=O)[C@H](CCC(N)=O)NC(=O)CNC1=O [compound 17] (H-G[S5]GKF[S5]HSKKKFGKA[S5]VGQ[S5]AKK-NH2; staple 2-6, 16-20) | 4 µg/mL | > 200 µg/mL | 32 µg/mL | ~180 µg/mL (≈ 71.1 µM) | 2 µg/mL | >64 µg/mL | 3 µg/mL
CC(C)[C@@H]1NC(=O)[C@@](C)(NC(=O)[C@H](C)NC(=O)[C@H](CCCCN)NC(=O)CNC(=O)[C@H](Cc2ccccc2)NC(=O)[C@H](CCCCN)NC(=O)[C@H](CCCCN)NC(=O)[C@H](CCCCN)NC(=O)[C@H](CO)NC(=O)[C@H](Cc2c[nH]cn2)NC(=O)[C@]2(C)CCCC=CCCC[C@](C)(NC(=O)CN)C(=O)NCC(=O)N[C@@H](CCCCN)C(=O)N[C@@H](Cc3ccccc3)C(=O)N2)CCCC=CCCC[C@@](C)(C(=O)N[C@@H](C)C(=O)N[C@@H](CCCCN)C(=O)N[C@@H](CCCCN)C(N)=O)NC(=O)[C@H](CC(N)=O)NC(=O)CNC1=O [compound 18] (H-G[S5]GKF[S5]HSKKKFGKA[S5]VGN[S5]AKK-NH2; staple 2-6, 16-20) | 4 µg/mL | > 200 µg/mL | 64 µg/mL | ~200 µg/mL (≈ 79.5 µM) | 2 µg/mL | >64 µg/mL | 4 µg/mL
CC(C)[C@@H]1NC(=O)[C@H](C(C)C)NC(=O)[C@@](C)(NC(=O)[C@H](C)NC(=O)[C@H](CCCCN)NC(=O)CNC(=O)[C@H](Cc2ccccc2)NC(=O)[C@H](CCCCN)NC(=O)[C@H](CCCCN)NC(=O)[C@H](CCCCN)NC(=O)[C@H](CO)NC(=O)[C@H](CCCCN)NC(=O)[C@]2(C)CCCC=CCCC[C@](C)(NC(=O)CN)C(=O)NCC(=O)N[C@@H](CCCCN)C(=O)N[C@@H](Cc3ccccc3)C(=O)N2)CCCC=CCCC[C@@](C)(C(=O)N[C@@H](C)C(=O)N[C@@H](CCCCN)C(=O)N[C@@H](CCCCN)C(N)=O)NC(=O)[C@H](CCC(=O)O)NC1=O [compound 19] (H-G[S5]GKF[S5]KSKKKFGKA[S5]VVE[S5]AKK-NH2; staple 2-6, 16-20) | 4 µg/mL | 95 µg/mL (≈ 37 µM) | 4 µg/mL | 92 µg/mL (≈ 35.9 µM) | 2 µg/mL | >64 µg/mL | 2 µg/mL
CC(C)[C@@H]1NC(=O)[C@@](C)(NC(=O)[C@H](C)NC(=O)[C@H](CCCCN)NC(=O)CNC(=O)[C@H](Cc2ccccc2)NC(=O)[C@H](CCCCN)NC(=O)[C@H](CCCCN)NC(=O)[C@H](CCCCN)NC(=O)[C@H](CO)NC(=O)[C@H](CCCCN)NC(=O)[C@]2(C)CCCC=CCCC[C@](C)(NC(=O)CN)C(=O)NCC(=O)N[C@@H](CCCCN)C(=O)N[C@@H](Cc3ccccc3)C(=O)N2)CCCC=CCCC[C@@](C)(C(=O)N[C@@H](C)C(=O)N[C@@H](CCCCN)C(=O)N[C@@H](CCCCN)C(N)=O)NC(=O)[C@H](CCC(=O)O)NC(=O)[C@H](Cc2ccccc2)NC1=O [compound 20] (H-G[S5]GKF[S5]KSKKKFGKA[S5]VFE[S5]AKK-NH2; staple 2-6, 16-20) | 2 µg/mL | 105 µg/mL (≈ 40.2 µM) | 2 µg/mL | 70 µg/mL (≈ 26.8 µM) | 2 µg/mL | 64 µg/mL | 2 µg/mL
CC(C)[C@@H]1NC(=O)[C@H](C(C)C)NC(=O)[C@@](C)(NC(=O)[C@H](C)NC(=O)[C@H](CCCCN)NC(=O)CNC(=O)[C@H](Cc2ccccc2)NC(=O)[C@H](CCCCN)NC(=O)[C@H](CCCCN)NC(=O)[C@H](CCCCN)NC(=O)[C@H](CCCCN)NC(=O)[C@H](Cc2c[nH]cn2)NC(=O)[C@]2(C)CCCC=CCCC[C@](C)(NC(=O)CN)C(=O)NCC(=O)N[C@@H](CCCCN)C(=O)N[C@@H](Cc3ccccc3)C(=O)N2)CCCC=CCCC[C@@](C)(C(=O)N[C@@H](C)C(=O)N[C@@H](CCCCN)C(=O)N[C@@H](CCCCN)C(N)=O)NC(=O)[C@H](CCC(=O)O)NC1=O [compound 21] (H-G[S5]GKF[S5]HKKKKFGKA[S5]VVE[S5]AKK-NH2; staple 2-6, 16-20) | 4 µg/mL | 208 µg/mL (≈ 79.5 µM) | 4 µg/mL | 251 µg/mL (≈ 96 µM) | 2 µg/mL | >64 µg/mL | 2 µg/mL
CC(C)[C@@H]1NC(=O)[C@@](C)(NC(=O)[C@H](C)NC(=O)[C@H](CCCCN)NC(=O)CNC(=O)[C@H](Cc2ccccc2)NC(=O)[C@H](CCCCN)NC(=O)[C@H](CCCCN)NC(=O)[C@H](CCCCN)NC(=O)[C@H](CCCCN)NC(=O)[C@H](Cc2c[nH]cn2)NC(=O)[C@]2(C)CCCC=CCCC[C@](C)(NC(=O)CN)C(=O)NCC(=O)N[C@@H](CCCCN)C(=O)N[C@@H](Cc3ccccc3)C(=O)N2)CCCC=CCCC[C@@](C)(C(=O)N[C@@H](C)C(=O)N[C@@H](CCCCN)C(=O)N[C@@H](CCCCN)C(N)=O)NC(=O)[C@H](CCC(=O)O)NC(=O)[C@H](Cc2ccccc2)NC1=O [compound 22] (H-G[S5]GKF[S5]HKKKKFGKA[S5]VFE[S5]AKK-NH2; staple 2-6, 16-20) | 4 µg/mL | > 200 µg/mL | 4 µg/mL | 202 µg/mL (≈ 75.8 µM) | 3 µg/mL | >64 µg/mL | 2 µg/mL
CC(C)[C@@H]1NC(=O)[C@@](C)(NC(=O)[C@H](C)NC(=O)[C@H](CCN)NC(=O)CNC(=O)[C@H](Cc2ccccc2)NC(=O)[C@H](CCN)NC(=O)[C@H](CCN)NC(=O)[C@H](CCN)NC(=O)[C@H](CCN)NC(=O)[C@H](CCN)NC(=O)[C@]2(C)CCCC=CCCC[C@](C)(NC(=O)CN)C(=O)NCC(=O)N[C@@H](CCN)C(=O)N[C@@H](Cc3ccccc3)C(=O)N2)CCCC=CCCC[C@@](C)(C(=O)N[C@@H](C)C(=O)N[C@@H](CCN)C(=O)N[C@@H](CCN)C(N)=O)NC(=O)[C@H](CCC(=O)O)NC(=O)CNC1=O [compound 23] (H-G[S5]G[Dab]F[S5][Dab][Dab][Dab][Dab][Dab]FG[Dab]A[S5]VGE[S5]A[Dab][Dab]-NH2; staple 2-6, 16-20) | 2 µg/mL | 39 µg/mL (≈ 16.9 µM) | 32 µg/mL | 84 µg/mL (≈ 36.3 µM) | 8 µg/mL | 64 µg/mL | 8 µg/mL

Source: US20240174723A1, “STAPLED ANTIMICROBIAL PEPTIDES (STAMPS) AND USES THEREOF” (Lytica Therapeutics, Inc., priority 2021, published 2024)
